Data set [1] has as its system patients with treatment resistant OCD. Put plainly: Same OCD study: state and trait anxiety scores (STAI). The class given is in vivo, human. Conditions: single dose 0.25 mg/kg. The source says:
(§1) Research Materials and Measures: Participants can complete self-report and clinician-administered measures of OCD symptoms, anxiety, depression, quality of life, and spirituality at baseline, prior to psilocybin session, and during all designated study visits. […]

The conditions of data set [2]: non-medical use as mushrooms; cited from earlier work.
Data set [3] relates to humans. As to the kind of experiment: Estimated lethal dose of pure psilocybin in humans. The conditions noted are these: 0.25 mg/kg versus LD50 in nonhuman animals and in humans.
Data set [4] has as its system humans. The conditions noted are these: pure psilocybin; cited from earlier work.
Data set [5] deals with patients with treatment resistant OCD. As to the kind of experiment: Double-blind, placebo controlled study of psilocybin in OCD (NCT03356483): acute-YBOCS / YBOCS.
Data set [6] concerns study participants. Conditions: cited from earlier work.
Data set [7] deals with rats. The conditions noted are these: cited from earlier work.
The subject of data set [8] is humans. The conditions noted are these: oral doses of up to 0.6 mg/kg; cited from earlier work.
For data set [9], the system named is serotonin 5-hydroxytryptamine (5-HT) receptors. Conditions: after conversion in the body to psilocin; most affinity to 5-HT2A and 5-HT2C, lesser to 5-HT1A; cited from earlier work.
The test system of data set [10] is patients with treatment resistant OCD. Put plainly: Same OCD study: depression scores (Montgomery-Asberg Depression Rating Scale). It is filed as in vivo, human. The conditions noted are these: single dose 0.25 mg/kg; scores not high in most subjects.
Description: as §1

Data set [11] relates to mice. Conditions: cited from earlier work.
Data set [12] deals with OCD symptoms. The conditions noted are these: low doses (2 mg-4 mg); cited from earlier work.

Broadly, the LD50 is the dose expected to kill half of the subjects tested.

For the molecule `CN(C)CCc1c[nH]c2cccc(OP(=O)(O)O)c12` [psilocybin, 3-(2-dimethylaminoethyl)-1H-indol-4-yl] dihydrogen phosphate], the “state anxiety scores (FIG. 6)” value in [1] is listed as “improved in those subjects whose OCD symptoms also improved”. Further, the “share of drug-related emergency department visits that mention it” value in [2] is on record as 0.1%. Moreover, the “full study dose relative to LD50” value in data set [3] is on record as “over 100 times smaller”. Also, in data set [4], the “best estimate of a lethal dose” value is “about 19 grams”. The “improvement in OCD symptoms after psilocybin in subjects who had previously received placebo (FIG. 4)” value in [5] (open-label, one of three subjects, 12 weeks follow-up) is “robust and lasting improvement in symptoms”. In addition, the “persistence of the improvement in symptoms” value in data set [5] (single dose 0.25 mg/kg, the three improved subjects) worked out at 12 weeks. Besides, the “improvement in OCD symptoms (YBOCS, FIG. 2 and 3)” value in data set [5] (single dose 0.25 mg/kg, three of the subjects receiving psilocybin) is listed as “robust improvement in symptoms”. In addition, the “acute-YBOCS score (M) at 48-hours after drug administration” value in data set [5] (single oral dose 0.25 mg/kg, N=5, baseline M=25.5 (18 to 29), SD=11.52, t(3)=2.71, p=0.036) turned out to be 15. Besides, the “reactions requiring pharmacological intervention” value in [6] (30 mg psilocybin) is “no reactions requiring pharmacological intervention occurred”. Moreover, in [6] (healthy study participants), the “rates of prolonged psychiatric symptoms of any kind following exposure” value is on record as 0.08-0.09%. Also, the “participants with distress sufficient to contact the researchers” value in data set [6] (meta-analysis, 110 research participants (1 participant)) is given as 0.9%. Also, in [6] (meta-analysis, 110 research participants), the “participants who endorsed negative changes in psychological well-being” value was 7 participants. Also, the “duration of common acute side effects” value in data set [6] (most effects) was “last no longer than six hours”. Also, the “adverse events associated with drug administration” value in data set [6] (over 2000 participants under controlled conditions) is on record as “no reports of the occurrence of a significance of adverse events”. Also, in [6] (review of studies 1999 to 2008, mild, brief, resolved within three days), the “subjects with persistent perceptual symptoms associated with HPPD” value is listed as “one subject (out of 110)”. The LD50 in [7] and in data set [11] was 285 mg/kg throughout. Besides, the serious adverse events entry in data set [8] is given as “no serious adverse events”. Moreover, the “action at 5-HT receptors” value in data set [9] is “partial agonist”. Besides, the “depression scores (MADRS, FIG. 5)” value in data set [10] is on record as “improved after psilocybin in several subjects”. Moreover, the “acute effect on OCD symptoms” value in data set [12] is on record as “acutely attenuated OCD symptoms even after low doses”.

Values taken from patent US20220062310A1, “[…] PATIENTS WITH OBSESSIVE-COMPULSIVE DISORDER” (YALE UNIVERSITY, priority 2020, published 2022).
